Reference: patent publication US10501516B2, “Peptide compound” (TAKEDA PHARMACEUTICAL COMPANY LIMITED, priority 2016, dated 2019)
Square brackets hold non-standard residues; d marks the D form. Side chains are listed from the residue outwards. Peptide text beside a SMILES is read from it. * marks the point of attachment. Phe(2-F) = N[C@@H](Cc1ccccc1F)C(=O)O; NMeY = CN[C@@H](Cc1ccc(O)cc1)C(=O)O; Palmitoyl = CCCCCCCCCCCCCCCC(=O)*; αMeF = C[C@](N)(Cc1ccccc1)C(=O)O; Iva = CC[C@](C)(N)C(=O)O; Aib = CC(C)(N)C(=O)O

System: male C57BL/6J mouse
Assay: Evaluation of feeding suppressive action in mice
Assay type: in vivo
Settings: 30 nmol/kg s.c. once a day for 3 days; 3-days cumulative food consumption vs solvent control
Experimental: The feeding suppressive activity of a test compound was examined by the method described below.
The test compound was dissolved at a concentration of 30 or 100 nmol/2 mL in a solvent (10% DMSO-containing physiological saline). The test compound solution was subcutaneously administered at a dose of 2 mL/kg to the back of each male C57BL/6J mouse at 8-9 weeks of age (20-26° C., allowed to take food and water ad libitum; raised in the 12-hour bright-12-hour dark cycle). The administration was performed once a day for 3 days. After the administration, the mouse was individually raised in a rearing cage, and given previously weighed food; food consumption for 3 days after the start of administration was measured. The food consumption was calculated by subtracting the amount of remaining food from the weight of the food given on the day of the start of administration. When the food consumption of a control group receiving administration of the solvent alone was regarded as a suppression rate of 0%, the feeding suppressive activity of each test compound was evaluated on the basis of 3-days cumulative food consumption after the start of administration. The food intake suppression rate (%) of the test compound was defined as (Food consumption of the control group−Food consumption of the test compound-administered group)/Food consumption of the control group×100.

| SMILES | Rate of feeding suppression (%) |
| --- | --- |
| CCCCCCCCCCCCCCCC(=O)NCC(=O)NCC(=O)NCC(=O)NCC(=O)NCCCC[C@H](NC(=O)[C@H](CC(=O)O)NC(=O)[C@H](CO)NC(=O)[C@@H](NC(=O)[C@](C)(Cc1ccccc1)NC(=O)[C@@H](NC(=O)CNC(=O)[C@H](CCC(=O)O)NC(=O)C(C)(C)NC(=O)[C@@H](N)Cc1ccc(O)cc1)[C@@H](C)O)[C@@H](C)O)C(=O)NC(C)(C)C(=O)N[C@H](C(=O)NC(C)(C)C(=O)N[C@@H](CC(C)C)C(=O)N[C@@H](CC(=O)O)C(=O)N[C@@H](CCCCN)C(=O)N[C@@H](CCC(N)=O)C(=O)N[C@@H](C)C(=O)N[C@@H](CCC(N)=O)C(=O)N[C@@](C)(CC)C(=O)N[C@@H](CCC(=O)O)C(=O)N[C@@H](Cc1ccccc1)C(=O)N[C@H](C(=O)N[C@@H](CCCNC(=N)N)C(=O)N[C@@H](Cc1c[nH]cn1)C(=O)N[C@@H](CC(C)C)C(=O)N[C@@H](CC(C)C)C(=O)N[C@@H](CC(N)=O)C(=O)N[C@@H](CCCCN)C(=O)NC(C)(C)C(=O)N[C@H](C(=O)N[C@@H](CCCNC(=N)N)C(=O)N[C@@H](CCC(N)=O)C(=O)N[C@@H](CCCNC(=N)N)C(=O)N[C@@H](Cc1ccccc1F)C(N)=O)[C@@H](C)O)C(C)C)[C@@H](C)CC [Example 1] (H-Y[Aib]EGT[αMeF]TSDK([Gly-Gly-Gly-Gly-Palmitoyl])[Aib]I[Aib]LDKQAQ[Iva]EFVRHLLNK[Aib]TRQR[Phe(2-F)]-NH2) | −37.1 |
| CCCCCCCCCCCCCCCC(=O)NCC(=O)NCC(=O)NCC(=O)NCC(=O)NCCCC[C@H](NC(=O)[C@H](CC(=O)O)NC(=O)[C@H](CO)NC(=O)[C@@H](NC(=O)[C@](C)(Cc1ccccc1)NC(=O)[C@@H](NC(=O)CNC(=O)[C@H](CCC(=O)O)NC(=O)C(C)(C)NC(=O)[C@@H](N)Cc1ccc(O)cc1)[C@@H](C)O)[C@@H](C)O)C(=O)N[C@@H](C)C(=O)N[C@H](C(=O)NC(C)(C)C(=O)N[C@@H](CC(C)C)C(=O)N[C@@H](CC(=O)O)C(=O)N[C@@H](CCCCN)C(=O)N[C@@H](CCC(N)=O)C(=O)N[C@@H](CCCNC(=N)N)C(=O)N[C@@H](CCC(N)=O)C(=O)N[C@@](C)(CC)C(=O)N[C@@H](CCC(=O)O)C(=O)N[C@@H](Cc1ccccc1)C(=O)N[C@H](C(=O)N[C@@H](CCCNC(=N)N)C(=O)N[C@@H](Cc1c[nH]cn1)C(=O)N[C@@H](CC(C)C)C(=O)N[C@@H](CC(C)C)C(=O)N[C@@H](CC(N)=O)C(=O)N[C@@H](CCCCN)C(=O)NC(C)(C)C(=O)N[C@H](C(=O)N[C@@H](CCCNC(=N)N)C(=O)N[C@@H](CCC(N)=O)C(=O)N[C@@H](CCCNC(=N)N)C(=O)N[C@@H](Cc1ccc(O)cc1)C(N)=O)[C@@H](C)O)C(C)C)[C@@H](C)CC [Example 11] (H-Y[Aib]EGT[αMeF]TSDK([Gly-Gly-Gly-Gly-Palmitoyl])AI[Aib]LDKQRQ[Iva]EFVRHLLNK[Aib]TRQRY-NH2) | −48.1 |
| CCCCCCCCCCCCCCCC(=O)NCC(=O)NCC(=O)NCC(=O)NCC(=O)NCCCC[C@H](NC(=O)[C@H](CC(=O)O)NC(=O)[C@H](CO)NC(=O)[C@@H](NC(=O)[C@](C)(Cc1ccccc1)NC(=O)[C@@H](NC(=O)CNC(=O)[C@H](CCC(=O)O)NC(=O)C(C)(C)NC(=O)[C@@H](N)Cc1ccc(O)cc1)[C@@H](C)O)[C@@H](C)O)C(=O)N[C@@H](CO)C(=O)N[C@H](C(=O)NC(C)(C)C(=O)N[C@@H](CC(C)C)C(=O)N[C@@H](CC(=O)O)C(=O)N[C@@H](CCCCN)C(=O)N[C@@H](CCC(N)=O)C(=O)N[C@@H](CCCNC(=N)N)C(=O)N[C@@H](CCC(N)=O)C(=O)N[C@@](C)(CC)C(=O)N[C@@H](CCC(=O)O)C(=O)N[C@@H](Cc1ccccc1)C(=O)N[C@H](C(=O)N[C@@H](CCCNC(=N)N)C(=O)N[C@@H](Cc1c[nH]cn1)C(=O)N[C@@H](CC(C)C)C(=O)N[C@@H](CC(C)C)C(=O)N[C@@H](CC(N)=O)C(=O)N[C@@H](CCCCN)C(=O)NC(C)(C)C(=O)N[C@H](C(=O)N[C@@H](CCCNC(=N)N)C(=O)N[C@@H](CCC(N)=O)C(=O)N[C@@H](CCCNC(=N)N)C(=O)N[C@@H](Cc1ccc(O)cc1)C(N)=O)[C@@H](C)O)C(C)C)[C@@H](C)CC [Example 15] (H-Y[Aib]EGT[αMeF]TSDK([Gly-Gly-Gly-Gly-Palmitoyl])SI[Aib]LDKQRQ[Iva]EFVRHLLNK[Aib]TRQRY-NH2) | −41.2 |
| CCCCCCCCCCCCCCCC(=O)NCC(=O)NCC(=O)NCC(=O)NCC(=O)NCCCC[C@H](NC(=O)[C@H](CC(=O)O)NC(=O)[C@H](CO)NC(=O)[C@@H](NC(=O)[C@](C)(Cc1ccccc1)NC(=O)[C@@H](NC(=O)CNC(=O)[C@H](CCC(=O)O)NC(=O)C(C)(C)NC(=O)[C@@H](N)Cc1ccc(O)cc1)[C@@H](C)O)[C@@H](C)O)C(=O)NC(C)(C)C(=O)N[C@@H](CCCCN)C(=O)NC(C)(C)C(=O)N[C@@H](CC(C)C)C(=O)N[C@@H](CC(=O)O)C(=O)N[C@@H](CCCCN)C(=O)N[C@@H](CCC(N)=O)C(=O)N[C@@H](CCCNC(=N)N)C(=O)N[C@@H](CCC(N)=O)C(=O)N[C@@](C)(CC)C(=O)N[C@@H](CCC(=O)O)C(=O)N[C@@H](Cc1ccccc1)C(=O)N[C@H](C(=O)N[C@@H](CCCNC(=N)N)C(=O)N[C@@H](Cc1c[nH]cn1)C(=O)N[C@@H](CC(C)C)C(=O)N[C@@H](CC(C)C)C(=O)N[C@@H](CC(N)=O)C(=O)N[C@@H](CCCCN)C(=O)NC(C)(C)C(=O)N[C@H](C(=O)N[C@@H](CCCNC(=N)N)C(=O)N[C@@H](CCC(N)=O)C(=O)N[C@@H](CCCNC(=N)N)C(=O)N[C@@H](Cc1ccc(O)cc1)C(N)=O)[C@@H](C)O)C(C)C [Example 19] (H-Y[Aib]EGT[αMeF]TSDK([Gly-Gly-Gly-Gly-Palmitoyl])[Aib]K[Aib]LDKQRQ[Iva]EFVRHLLNK[Aib]TRQRY-NH2) | −37.0 |
| CCCCCCCCCCCCCCCC(=O)NCC(=O)NCC(=O)NCC(=O)NCC(=O)NCCCC[C@H](NC(=O)[C@H](CC(=O)O)NC(=O)[C@H](CO)NC(=O)[C@@H](NC(=O)[C@](C)(Cc1ccccc1)NC(=O)[C@@H](NC(=O)CNC(=O)[C@H](CCC(=O)O)NC(=O)C(C)(C)NC(=O)[C@H](Cc1ccc(O)cc1)NC)[C@@H](C)O)[C@@H](C)O)C(=O)NC(C)(C)C(=O)N[C@@H](CCCCN)C(=O)NC(C)(C)C(=O)N[C@@H](CC(C)C)C(=O)N[C@@H](CC(=O)O)C(=O)N[C@@H](CCCCN)C(=O)N[C@@H](CCC(N)=O)C(=O)N[C@@H](CCCNC(=N)N)C(=O)N[C@@H](CCC(N)=O)C(=O)N[C@@](C)(CC)C(=O)N[C@@H](CCC(=O)O)C(=O)N[C@@H](Cc1ccccc1)C(=O)N[C@H](C(=O)N[C@@H](CCCNC(=N)N)C(=O)N[C@@H](Cc1c[nH]cn1)C(=O)N[C@@H](CC(C)C)C(=O)N[C@@H](CC(C)C)C(=O)N[C@@H](CC(N)=O)C(=O)N[C@@H](CCCCN)C(=O)NC(C)(C)C(=O)N[C@H](C(=O)N[C@@H](CCCNC(=N)N)C(=O)N[C@@H](CCC(N)=O)C(=O)N[C@@H](CCCNC(=N)N)C(=O)N[C@@H](Cc1ccc(O)cc1)C(N)=O)[C@@H](C)O)C(C)C [Example 21] (H-[NMeY][Aib]EGT[αMeF]TSDK([Gly-Gly-Gly-Gly-Palmitoyl])[Aib]K[Aib]LDKQRQ[Iva]EFVRHLLNK[Aib]TRQRY-NH2) | −27.9 |
| CCCCCCCCCCCCCCCC(=O)NCC(=O)NCC(=O)NCC(=O)NCC(=O)NCCCC[C@H](NC(=O)[C@H](CC(=O)O)NC(=O)[C@H](CO)NC(=O)[C@@H](NC(=O)[C@](C)(Cc1ccccc1)NC(=O)[C@@H](NC(=O)CNC(=O)[C@H](CCC(=O)O)NC(=O)C(C)(C)NC(=O)[C@H](Cc1ccc(O)cc1)NC)[C@@H](C)O)[C@@H](C)O)C(=O)N[C@@H](CO)C(=O)N[C@@H](CCCCN)C(=O)NC(C)(C)C(=O)N[C@@H](CC(C)C)C(=O)N[C@@H](CC(=O)O)C(=O)N[C@@H](CCCCN)C(=O)N[C@@H](CCC(N)=O)C(=O)N[C@@H](CCCNC(=N)N)C(=O)N[C@@H](CCC(N)=O)C(=O)N[C@@](C)(CC)C(=O)N[C@@H](CCC(=O)O)C(=O)N[C@@H](Cc1ccccc1)C(=O)N[C@H](C(=O)N[C@@H](CCCNC(=N)N)C(=O)N[C@@H](Cc1c[nH]cn1)C(=O)N[C@@H](CC(C)C)C(=O)N[C@@H](CC(C)C)C(=O)N[C@@H](CC(N)=O)C(=O)N[C@@H](CCCCN)C(=O)NC(C)(C)C(=O)N[C@H](C(=O)N[C@@H](CCCNC(=N)N)C(=O)N[C@@H](CCC(N)=O)C(=O)N[C@@H](CCCNC(=N)N)C(=O)N[C@@H](Cc1ccc(O)cc1)C(N)=O)[C@@H](C)O)C(C)C [Example 25] (H-[NMeY][Aib]EGT[αMeF]TSDK([Gly-Gly-Gly-Gly-Palmitoyl])SK[Aib]LDKQRQ[Iva]EFVRHLLNK[Aib]TRQRY-NH2) | −41.7 |
| CCCCCCCCCCCCCCCC(=O)NCC(=O)NCC(=O)NCC(=O)NCC(=O)NCCCC[C@H](NC(=O)[C@H](CC(=O)O)NC(=O)[C@H](CO)NC(=O)[C@@H](NC(=O)[C@](C)(Cc1ccccc1)NC(=O)[C@@H](NC(=O)CNC(=O)[C@H](CCC(=O)O)NC(=O)C(C)(C)NC(=O)[C@H](Cc1ccc(O)cc1)NC)[C@@H](C)O)[C@@H](C)O)C(=O)NC(C)(C)C(=O)N[C@H](C(=O)NC(C)(C)C(=O)N[C@@H](CC(C)C)C(=O)N[C@@H](CC(=O)O)C(=O)N[C@@H](CCCCN)C(=O)N[C@@H](CCC(N)=O)C(=O)N[C@@H](C)C(=O)N[C@@H](CCC(N)=O)C(=O)N[C@@](C)(CC)C(=O)N[C@@H](CCC(=O)O)C(=O)N[C@@H](Cc1ccccc1)C(=O)N[C@H](C(=O)N[C@@H](CCCNC(=N)N)C(=O)N[C@@H](Cc1c[nH]cn1)C(=O)N[C@@H](CC(C)C)C(=O)N[C@@H](CC(C)C)C(=O)N[C@@H](CC(N)=O)C(=O)N[C@@H](CCCCN)C(=O)NC(C)(C)C(=O)N[C@H](C(=O)N[C@@H](CCCNC(=N)N)C(=O)N[C@@H](CCC(N)=O)C(=O)N[C@@H](CCCNC(=N)N)C(=O)N[C@@H](Cc1ccc(O)cc1)C(N)=O)[C@@H](C)O)C(C)C)[C@@H](C)CC [Example 29] (H-[NMeY][Aib]EGT[αMeF]TSDK([Gly-Gly-Gly-Gly-Palmitoyl])[Aib]I[Aib]LDKQAQ[Iva]EFVRHLLNK[Aib]TRQRY-NH2) | −43.7 |
